The record followed here is ChEMBL document CHEMBL4800726, “Data for DCP probe MSC-4381” (2021).

In general, IC50 refers to the concentration that inhibits the measured activity by half. The low end stands for inhibition by little substance, the high end for a need for much substance. For orientation: inhibition means the relative decrease from the control value, in per cent.

Some results are limits rather than exact numbers.

The target in experiment [1] is Monocarboxylate transporter 2/3 (Homo sapiens, UniProt O60669+O95907). As to the kind of experiment: Lactate efflux inhibition assay (RT4). In kind it is protein assay.
Experiment [2] concerns the target T1, 5-hydroxytryptamine receptor 1A (Homo sapiens) (UniProt P08908).
T1 sequence (whole entry): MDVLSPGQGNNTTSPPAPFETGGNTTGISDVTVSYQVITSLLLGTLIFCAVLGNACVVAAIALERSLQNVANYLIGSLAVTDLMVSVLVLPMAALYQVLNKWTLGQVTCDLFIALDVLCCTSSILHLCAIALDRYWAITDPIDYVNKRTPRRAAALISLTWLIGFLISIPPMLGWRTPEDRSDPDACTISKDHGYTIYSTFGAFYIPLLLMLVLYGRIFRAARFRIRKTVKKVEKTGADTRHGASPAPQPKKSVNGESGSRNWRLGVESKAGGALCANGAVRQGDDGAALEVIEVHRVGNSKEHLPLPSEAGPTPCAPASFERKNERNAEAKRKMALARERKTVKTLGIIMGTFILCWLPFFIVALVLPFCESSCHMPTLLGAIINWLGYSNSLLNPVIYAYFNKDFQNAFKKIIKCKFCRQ
The settings on record: Compound concentration 10.0 uM.

Experiment [3] addresses 5-hydroxytryptamine receptor 2B (Homo sapiens) (UniProt P41595). The settings on record: Compound concentration 10.0 uM.
In experiment [4] the target is T2, 5-hydroxytryptamine receptor 3A (Homo sapiens) (UniProt P46098).
T2 sequence (whole entry): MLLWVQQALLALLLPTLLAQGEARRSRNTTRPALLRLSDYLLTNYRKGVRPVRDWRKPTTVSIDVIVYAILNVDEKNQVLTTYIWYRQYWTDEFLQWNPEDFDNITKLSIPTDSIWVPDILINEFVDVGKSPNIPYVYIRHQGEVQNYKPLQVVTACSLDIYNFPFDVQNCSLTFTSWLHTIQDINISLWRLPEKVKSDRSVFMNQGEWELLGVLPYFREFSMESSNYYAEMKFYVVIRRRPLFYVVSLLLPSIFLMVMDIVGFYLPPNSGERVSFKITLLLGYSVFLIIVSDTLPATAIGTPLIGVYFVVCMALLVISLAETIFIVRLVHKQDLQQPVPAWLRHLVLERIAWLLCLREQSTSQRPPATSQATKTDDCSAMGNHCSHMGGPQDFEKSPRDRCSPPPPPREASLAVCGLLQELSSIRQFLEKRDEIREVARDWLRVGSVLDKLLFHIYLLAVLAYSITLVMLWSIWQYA
The settings on record: Compound concentration 10.0 uM.

Experiment [5] addresses D(4) dopamine receptor (Homo sapiens) (UniProt P21917). The settings on record: Compound concentration 10.0 uM.
The target of experiment [6] is Sodium-dependent serotonin transporter (Homo sapiens) (UniProt P31645). The settings on record: Compound concentration 10.0 uM.
Experiment [7] concerns the target Sodium-dependent dopamine transporter (Homo sapiens, UniProt Q01959). The settings on record: Compound concentration 10.0 uM.
The target in experiment [8] is Delta-type opioid receptor (Homo sapiens, UniProt P41143). The conditions noted are these: Compound concentration 10.0 uM.
Experiment [9] concerns the target Alpha-1B adrenergic receptor (Homo sapiens) (UniProt P35368). The conditions noted are these: Compound concentration 10.0 uM.
Experiment [10] deals with Alpha-2B adrenergic receptor (Homo sapiens) (UniProt P18089). The conditions noted are these: Compound concentration 10.0 uM.
Experiment [11] has as its target Alpha-2C adrenergic receptor (Homo sapiens) (UniProt P18825). The conditions noted are these: Compound concentration 10.0 uM.
In experiment [12] the target is Beta-1 adrenergic receptor (Homo sapiens) (UniProt P08588). The settings on record: Compound concentration 10.0 uM.
The target in experiment [13] is Beta-2 adrenergic receptor (Homo sapiens) (UniProt P07550). The settings on record: Compound concentration 10.0 uM.
Experiment [14] has as its target T3, Muscarinic acetylcholine receptor M2 (Homo sapiens) (UniProt P08172).
T3 sequence (whole entry): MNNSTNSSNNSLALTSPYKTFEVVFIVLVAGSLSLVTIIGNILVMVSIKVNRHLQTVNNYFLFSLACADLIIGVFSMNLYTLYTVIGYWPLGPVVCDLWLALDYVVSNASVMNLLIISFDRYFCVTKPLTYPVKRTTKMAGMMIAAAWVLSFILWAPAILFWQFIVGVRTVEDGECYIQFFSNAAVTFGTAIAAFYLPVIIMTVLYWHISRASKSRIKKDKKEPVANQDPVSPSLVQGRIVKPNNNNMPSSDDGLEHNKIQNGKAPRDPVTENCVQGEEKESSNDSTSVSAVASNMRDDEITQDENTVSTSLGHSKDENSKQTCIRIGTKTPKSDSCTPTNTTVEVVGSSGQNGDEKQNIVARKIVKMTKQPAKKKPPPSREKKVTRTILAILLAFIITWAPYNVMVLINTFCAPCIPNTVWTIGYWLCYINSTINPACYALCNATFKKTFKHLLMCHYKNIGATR
The settings on record: Compound concentration 10.0 uM.

The target in experiment [15] is T4, Muscarinic acetylcholine receptor M5 (Homo sapiens) (UniProt P08912).
T4 sequence (whole entry): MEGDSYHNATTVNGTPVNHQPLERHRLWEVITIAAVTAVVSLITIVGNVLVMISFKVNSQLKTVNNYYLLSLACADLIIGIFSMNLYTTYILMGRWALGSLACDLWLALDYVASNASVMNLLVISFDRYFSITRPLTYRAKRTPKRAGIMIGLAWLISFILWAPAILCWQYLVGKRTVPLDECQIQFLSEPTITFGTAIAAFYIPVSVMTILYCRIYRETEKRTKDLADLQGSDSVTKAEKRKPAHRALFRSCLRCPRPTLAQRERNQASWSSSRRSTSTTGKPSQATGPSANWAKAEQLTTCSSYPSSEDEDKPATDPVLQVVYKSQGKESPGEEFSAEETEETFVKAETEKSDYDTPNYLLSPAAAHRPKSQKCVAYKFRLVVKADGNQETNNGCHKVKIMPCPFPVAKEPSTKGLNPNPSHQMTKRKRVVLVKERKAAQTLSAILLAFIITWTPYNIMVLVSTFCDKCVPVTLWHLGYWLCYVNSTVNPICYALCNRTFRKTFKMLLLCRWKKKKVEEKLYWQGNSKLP
The settings on record: Compound concentration 10.0 uM.

A further experiment is filed under the species Rattus norvegicus. The conditions noted are these: Compound concentration 10.0 uM.
Experiment [16] has as its target Sigma non-opioid intracellular receptor 1 (Homo sapiens) (UniProt Q99720). The conditions noted are these: Compound concentration 10.0 uM.

Chain of Beta-1 adrenergic receptor (Homo sapiens) (P08588 whole entry, looked up): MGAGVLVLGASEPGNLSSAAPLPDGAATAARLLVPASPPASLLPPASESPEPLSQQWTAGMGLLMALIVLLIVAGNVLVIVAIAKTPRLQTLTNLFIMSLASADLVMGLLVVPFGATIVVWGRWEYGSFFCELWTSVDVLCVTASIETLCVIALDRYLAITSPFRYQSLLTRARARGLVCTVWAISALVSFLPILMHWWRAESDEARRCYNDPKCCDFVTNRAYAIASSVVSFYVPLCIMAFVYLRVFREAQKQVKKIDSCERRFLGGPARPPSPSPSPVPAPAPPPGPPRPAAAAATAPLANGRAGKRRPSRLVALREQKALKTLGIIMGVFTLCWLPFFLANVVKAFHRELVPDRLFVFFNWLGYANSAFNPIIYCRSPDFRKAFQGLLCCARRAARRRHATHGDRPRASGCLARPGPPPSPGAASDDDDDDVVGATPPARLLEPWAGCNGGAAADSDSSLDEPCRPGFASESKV
Chain of Beta-2 adrenergic receptor (Homo sapiens) (P07550 whole entry, looked up): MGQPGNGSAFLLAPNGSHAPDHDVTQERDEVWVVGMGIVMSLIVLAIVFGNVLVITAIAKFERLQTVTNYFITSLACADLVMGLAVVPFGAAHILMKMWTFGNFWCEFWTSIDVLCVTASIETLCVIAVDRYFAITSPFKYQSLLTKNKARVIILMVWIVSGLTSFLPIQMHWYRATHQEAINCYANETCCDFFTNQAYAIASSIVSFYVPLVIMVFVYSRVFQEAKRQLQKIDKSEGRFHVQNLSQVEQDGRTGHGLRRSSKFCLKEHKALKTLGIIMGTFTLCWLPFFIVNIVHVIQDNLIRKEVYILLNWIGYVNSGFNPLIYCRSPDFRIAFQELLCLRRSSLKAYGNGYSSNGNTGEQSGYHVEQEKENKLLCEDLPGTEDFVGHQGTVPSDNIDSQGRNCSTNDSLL
Chain of 5-hydroxytryptamine receptor 2B (Homo sapiens) (P41595 whole entry): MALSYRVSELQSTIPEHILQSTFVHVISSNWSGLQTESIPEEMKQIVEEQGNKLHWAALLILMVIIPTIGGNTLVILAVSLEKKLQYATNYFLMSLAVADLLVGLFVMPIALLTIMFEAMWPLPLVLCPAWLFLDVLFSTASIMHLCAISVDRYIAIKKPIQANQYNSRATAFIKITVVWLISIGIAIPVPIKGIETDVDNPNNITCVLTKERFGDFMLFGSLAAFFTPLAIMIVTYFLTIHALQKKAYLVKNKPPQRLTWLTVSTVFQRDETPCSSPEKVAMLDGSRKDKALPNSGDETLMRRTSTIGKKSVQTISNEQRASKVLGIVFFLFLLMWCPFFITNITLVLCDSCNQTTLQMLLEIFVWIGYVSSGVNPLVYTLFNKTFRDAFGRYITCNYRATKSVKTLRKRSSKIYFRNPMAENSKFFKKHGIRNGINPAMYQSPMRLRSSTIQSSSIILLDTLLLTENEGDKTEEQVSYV
Chain of D(4) dopamine receptor (Homo sapiens) (P21917 whole entry): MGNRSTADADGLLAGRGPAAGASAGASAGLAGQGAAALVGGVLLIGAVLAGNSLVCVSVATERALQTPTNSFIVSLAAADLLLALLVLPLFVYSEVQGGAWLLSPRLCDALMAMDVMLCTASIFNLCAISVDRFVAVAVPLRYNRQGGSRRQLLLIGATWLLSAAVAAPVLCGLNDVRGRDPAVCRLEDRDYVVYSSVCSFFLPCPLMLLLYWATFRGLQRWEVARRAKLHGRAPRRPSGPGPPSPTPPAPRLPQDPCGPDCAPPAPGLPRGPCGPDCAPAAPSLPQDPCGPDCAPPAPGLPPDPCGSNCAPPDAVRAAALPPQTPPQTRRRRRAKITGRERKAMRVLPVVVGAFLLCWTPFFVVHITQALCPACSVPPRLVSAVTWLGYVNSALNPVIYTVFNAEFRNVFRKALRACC
Chain of Sodium-dependent serotonin transporter (Homo sapiens) (P31645 whole entry, looked up): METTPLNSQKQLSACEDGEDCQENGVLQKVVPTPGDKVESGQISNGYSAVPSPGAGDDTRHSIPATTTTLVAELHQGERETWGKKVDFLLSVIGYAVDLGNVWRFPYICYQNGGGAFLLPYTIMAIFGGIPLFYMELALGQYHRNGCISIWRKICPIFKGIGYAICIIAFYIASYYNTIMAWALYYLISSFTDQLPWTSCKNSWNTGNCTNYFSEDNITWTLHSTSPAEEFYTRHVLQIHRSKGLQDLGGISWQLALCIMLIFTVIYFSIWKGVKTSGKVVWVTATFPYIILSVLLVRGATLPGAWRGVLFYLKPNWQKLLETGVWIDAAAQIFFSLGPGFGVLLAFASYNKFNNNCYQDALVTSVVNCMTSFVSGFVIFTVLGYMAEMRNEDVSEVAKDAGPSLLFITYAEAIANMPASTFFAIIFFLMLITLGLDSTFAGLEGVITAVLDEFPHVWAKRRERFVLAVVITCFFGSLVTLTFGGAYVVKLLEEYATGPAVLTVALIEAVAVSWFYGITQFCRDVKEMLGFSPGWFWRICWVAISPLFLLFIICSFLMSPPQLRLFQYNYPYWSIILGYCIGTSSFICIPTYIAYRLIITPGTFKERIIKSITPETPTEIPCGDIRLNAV
Chain of Delta-type opioid receptor (P41143 whole entry): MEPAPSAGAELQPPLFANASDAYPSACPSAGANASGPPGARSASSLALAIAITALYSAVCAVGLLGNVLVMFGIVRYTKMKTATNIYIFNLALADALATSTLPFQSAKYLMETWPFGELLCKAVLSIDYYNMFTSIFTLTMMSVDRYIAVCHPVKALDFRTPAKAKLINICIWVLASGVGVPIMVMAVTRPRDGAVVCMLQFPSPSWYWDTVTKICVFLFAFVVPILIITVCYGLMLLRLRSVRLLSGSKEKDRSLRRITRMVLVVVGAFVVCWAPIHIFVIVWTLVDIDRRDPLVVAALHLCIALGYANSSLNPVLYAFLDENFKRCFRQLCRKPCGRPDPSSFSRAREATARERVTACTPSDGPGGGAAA
Chain of Alpha-1B adrenergic receptor (Homo sapiens) (P35368 whole entry): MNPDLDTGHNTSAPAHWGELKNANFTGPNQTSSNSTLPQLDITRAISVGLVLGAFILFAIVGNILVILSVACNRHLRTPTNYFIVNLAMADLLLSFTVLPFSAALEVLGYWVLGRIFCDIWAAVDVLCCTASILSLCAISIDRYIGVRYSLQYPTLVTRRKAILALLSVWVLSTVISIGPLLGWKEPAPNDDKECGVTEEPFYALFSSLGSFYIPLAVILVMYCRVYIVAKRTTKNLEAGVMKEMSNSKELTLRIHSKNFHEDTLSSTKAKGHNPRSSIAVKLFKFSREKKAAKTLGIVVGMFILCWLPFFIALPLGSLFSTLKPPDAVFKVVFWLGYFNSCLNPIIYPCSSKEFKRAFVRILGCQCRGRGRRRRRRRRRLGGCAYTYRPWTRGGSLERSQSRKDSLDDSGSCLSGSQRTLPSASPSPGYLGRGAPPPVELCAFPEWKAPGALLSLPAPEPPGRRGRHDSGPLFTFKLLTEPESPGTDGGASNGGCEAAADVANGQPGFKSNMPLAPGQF
Chain of Alpha-2B adrenergic receptor (Homo sapiens) (P18089 whole entry): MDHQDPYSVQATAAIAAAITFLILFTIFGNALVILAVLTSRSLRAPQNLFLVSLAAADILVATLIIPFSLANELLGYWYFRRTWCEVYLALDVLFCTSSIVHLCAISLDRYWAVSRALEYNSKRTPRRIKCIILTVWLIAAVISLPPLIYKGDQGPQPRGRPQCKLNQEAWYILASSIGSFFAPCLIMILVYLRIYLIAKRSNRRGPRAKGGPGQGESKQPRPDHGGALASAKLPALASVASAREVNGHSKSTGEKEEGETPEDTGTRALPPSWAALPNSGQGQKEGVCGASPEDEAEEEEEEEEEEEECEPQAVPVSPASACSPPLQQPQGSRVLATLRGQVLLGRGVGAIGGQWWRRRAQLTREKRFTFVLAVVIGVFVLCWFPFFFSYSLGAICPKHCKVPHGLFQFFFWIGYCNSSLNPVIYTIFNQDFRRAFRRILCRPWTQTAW
Chain of Alpha-2C adrenergic receptor (Homo sapiens) (P18825 whole entry): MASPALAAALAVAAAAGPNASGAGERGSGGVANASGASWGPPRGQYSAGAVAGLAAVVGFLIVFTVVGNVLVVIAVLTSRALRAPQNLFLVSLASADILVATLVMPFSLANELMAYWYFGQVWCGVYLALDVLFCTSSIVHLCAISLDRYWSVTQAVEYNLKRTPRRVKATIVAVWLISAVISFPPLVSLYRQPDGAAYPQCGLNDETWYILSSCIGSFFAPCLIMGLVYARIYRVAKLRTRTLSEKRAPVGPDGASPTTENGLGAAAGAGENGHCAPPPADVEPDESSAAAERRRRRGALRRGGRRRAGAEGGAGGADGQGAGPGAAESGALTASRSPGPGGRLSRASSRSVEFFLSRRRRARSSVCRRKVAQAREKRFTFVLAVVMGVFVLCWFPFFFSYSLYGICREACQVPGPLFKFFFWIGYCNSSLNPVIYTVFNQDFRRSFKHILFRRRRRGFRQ
Chain of Sodium-dependent dopamine transporter (Q01959 whole entry): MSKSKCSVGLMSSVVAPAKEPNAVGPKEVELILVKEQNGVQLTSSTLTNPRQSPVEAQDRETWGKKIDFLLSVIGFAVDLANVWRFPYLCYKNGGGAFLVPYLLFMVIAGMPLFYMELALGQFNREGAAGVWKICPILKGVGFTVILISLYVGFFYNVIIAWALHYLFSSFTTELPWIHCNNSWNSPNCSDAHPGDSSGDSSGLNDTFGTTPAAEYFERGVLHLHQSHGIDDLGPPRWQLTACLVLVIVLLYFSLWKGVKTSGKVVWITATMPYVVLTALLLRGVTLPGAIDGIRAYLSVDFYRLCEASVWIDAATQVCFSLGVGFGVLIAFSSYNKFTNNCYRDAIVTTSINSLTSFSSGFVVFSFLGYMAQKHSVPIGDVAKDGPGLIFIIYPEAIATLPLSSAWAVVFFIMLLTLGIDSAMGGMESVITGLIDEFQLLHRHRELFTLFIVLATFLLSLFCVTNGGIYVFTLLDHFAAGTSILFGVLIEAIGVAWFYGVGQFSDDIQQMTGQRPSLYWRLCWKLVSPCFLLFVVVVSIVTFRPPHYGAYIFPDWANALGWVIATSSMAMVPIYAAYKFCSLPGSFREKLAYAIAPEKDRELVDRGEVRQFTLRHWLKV

For `COc1cc(C(=O)O)ncc1C#Cc1ccccc1NS(=O)(=O)c1cccc2c(N(C)C)ccnc12` [MSC-0516], the IC50 in experiment [1] was > 4000 nM (not active). In addition, the inhibition is 40.2% in [2]; 34.9% in experiment [3]; 1.13% in experiment [4]; 4.65% in [5]; 3.99% in experiment [6]; 80.3% in [7]. For the same compound, the inhibition in experiment [8] was 84.3%; in experiment [9], 16.9%; in experiment [10], 8.34%; in [11], 13%; in experiment [12], 16.7%; in [13], -2.19%. Also, the inhibition is 2.62% in experiment [14], -3.36% in [15], 60.4% in the experiment filed under Rattus norvegicus and 18.7% in [16].

Compound `CCOc1ccc(S(=O)(=O)Nc2ccc(Cl)cc2C#Cc2cnc(C(=O)O)cc2OC)c2ncccc12` [MSC-4381] displayed an IC50 in experiment [1] of 638 nM. Further, the inhibition in experiment [2] was 18.6%; in experiment [3] it was 8.83%; in experiment [4] it was 9.43%; in experiment [5] it was 4.2%; in [6], 6.49%; in experiment [7], 23.4%. Also, the inhibition is -8.88% in experiment [8]; -9.4% in experiment [9]; 15% in experiment [10]; 27.7% in [11]; 18.8% in experiment [12]; 14.8% in experiment [13]. The inhibition was -0.58% in [14], -6.26% in experiment [15], 45% in the experiment filed under Rattus norvegicus and -6.66% in [16].
